Measurements taken from patent US9018173B2, “Materials and methods for suppressing inflammatory and neuropathic pain” (Indiana University Research and Technology Corp., priority 2010, dated 2015).
Entries after “also recorded” stand apart in the source; their conditions may differ. Residues, ends and D or L forms follow the SMILES beside them.

Experiments:
[1] = tested on: anxiety-associated behavior; experiment: Elevated plus maze (EPM); assay type: in vivo, C57BL6 mice; details: for Elevated Plus Maze: Closed arm entries / Elevated Plus Maze: Closed arm latency to enter / Elevated Plus Maze: Closed arm latency to exit / Elevated Plus Maze: Open arm entries / Elevated Plus Maze: Open arm latency to enter / Elevated Plus Maze: Open arm latency to exit: C57BL6 mice, 1 h after injection, 5 min test
[2] = tested on: capsaicin-induced meningeal blood flow changes; details: read-out: IC50 of percent inhibition of capsaicin-induced blood flow; dural application; versus averaged TAT-scramble; n=4-5
[3] = tested on: CRMP-2 binding to L1 and Ct-dis regions of CaV2.2; experiment: In vitro binding of L1-GST and Ct-dis-GST fusion proteins to CRMP-2; parameters: species or system rat; details: peptides 10 μM
Description: In Vitro Protein Binding Assays. Using Vector NTI (v. 11; Invitrogen) software, primers were designed to amplify regions corresponding to the first cytoslic loop (L1; amino acids 356 to 483) and the distal end of the C-terminus (Ct-dis; amino acids 2133 to 2348) of rat CaV2.2 cDNA from P3 rat brain cDNA. The primers harbored restriction sites (Bam HI or Bgl II (5′) and Eco RI or Mfe I (3′)) to facilitate cloning into […]. In addition to the GST-tag, this vector contains the Glu tag, a sequence of six amino acids (EYMPME). Correctly-amplified PCR products and parent pGex-3x-Glu vector were digested with the indicated restriction enzymes, and then extracted following electrophoresis on an agarose gel. The extracted DNAs were quantified (Nanodrop 1000, Thermo Scientific), and ligations were performed using 6:1 and 3:1 insert to vector molar ratios. […]
Monoclonal Glu antibody-saturated Protein G beads (GE Healthcare) carrying various CaV2.2 cytoplasmic loop constructs were incubated with rat brain synaptosome protein in the presence of TAT control or TAT CBD3 peptides (10 μM) in a total reaction volume of 400 μl. […] The samples were then washed three times with a 1000-fold excess of binding buffer, and the proteins were eluted in 40 μl of SDS gel buffer and boiled for 5 min, after which 20 μl of each assay was run on SDS-PAGE and analyzed by immunoblotting with CRMP-2.

[4] = target: CaV2.2 current density in hippocampal neurons (Rattus norvegicus, UniProt Q02294); experiment: Whole-cell patch-clamp Ca2+ currents in hippocampal neurons; assay type: cell-based; details: co-expression with CRMP-2 in hippocampal neurons; +10 mV
CaV2.2 current density in hippocampal neurons, sequence (Q02294 whole entry): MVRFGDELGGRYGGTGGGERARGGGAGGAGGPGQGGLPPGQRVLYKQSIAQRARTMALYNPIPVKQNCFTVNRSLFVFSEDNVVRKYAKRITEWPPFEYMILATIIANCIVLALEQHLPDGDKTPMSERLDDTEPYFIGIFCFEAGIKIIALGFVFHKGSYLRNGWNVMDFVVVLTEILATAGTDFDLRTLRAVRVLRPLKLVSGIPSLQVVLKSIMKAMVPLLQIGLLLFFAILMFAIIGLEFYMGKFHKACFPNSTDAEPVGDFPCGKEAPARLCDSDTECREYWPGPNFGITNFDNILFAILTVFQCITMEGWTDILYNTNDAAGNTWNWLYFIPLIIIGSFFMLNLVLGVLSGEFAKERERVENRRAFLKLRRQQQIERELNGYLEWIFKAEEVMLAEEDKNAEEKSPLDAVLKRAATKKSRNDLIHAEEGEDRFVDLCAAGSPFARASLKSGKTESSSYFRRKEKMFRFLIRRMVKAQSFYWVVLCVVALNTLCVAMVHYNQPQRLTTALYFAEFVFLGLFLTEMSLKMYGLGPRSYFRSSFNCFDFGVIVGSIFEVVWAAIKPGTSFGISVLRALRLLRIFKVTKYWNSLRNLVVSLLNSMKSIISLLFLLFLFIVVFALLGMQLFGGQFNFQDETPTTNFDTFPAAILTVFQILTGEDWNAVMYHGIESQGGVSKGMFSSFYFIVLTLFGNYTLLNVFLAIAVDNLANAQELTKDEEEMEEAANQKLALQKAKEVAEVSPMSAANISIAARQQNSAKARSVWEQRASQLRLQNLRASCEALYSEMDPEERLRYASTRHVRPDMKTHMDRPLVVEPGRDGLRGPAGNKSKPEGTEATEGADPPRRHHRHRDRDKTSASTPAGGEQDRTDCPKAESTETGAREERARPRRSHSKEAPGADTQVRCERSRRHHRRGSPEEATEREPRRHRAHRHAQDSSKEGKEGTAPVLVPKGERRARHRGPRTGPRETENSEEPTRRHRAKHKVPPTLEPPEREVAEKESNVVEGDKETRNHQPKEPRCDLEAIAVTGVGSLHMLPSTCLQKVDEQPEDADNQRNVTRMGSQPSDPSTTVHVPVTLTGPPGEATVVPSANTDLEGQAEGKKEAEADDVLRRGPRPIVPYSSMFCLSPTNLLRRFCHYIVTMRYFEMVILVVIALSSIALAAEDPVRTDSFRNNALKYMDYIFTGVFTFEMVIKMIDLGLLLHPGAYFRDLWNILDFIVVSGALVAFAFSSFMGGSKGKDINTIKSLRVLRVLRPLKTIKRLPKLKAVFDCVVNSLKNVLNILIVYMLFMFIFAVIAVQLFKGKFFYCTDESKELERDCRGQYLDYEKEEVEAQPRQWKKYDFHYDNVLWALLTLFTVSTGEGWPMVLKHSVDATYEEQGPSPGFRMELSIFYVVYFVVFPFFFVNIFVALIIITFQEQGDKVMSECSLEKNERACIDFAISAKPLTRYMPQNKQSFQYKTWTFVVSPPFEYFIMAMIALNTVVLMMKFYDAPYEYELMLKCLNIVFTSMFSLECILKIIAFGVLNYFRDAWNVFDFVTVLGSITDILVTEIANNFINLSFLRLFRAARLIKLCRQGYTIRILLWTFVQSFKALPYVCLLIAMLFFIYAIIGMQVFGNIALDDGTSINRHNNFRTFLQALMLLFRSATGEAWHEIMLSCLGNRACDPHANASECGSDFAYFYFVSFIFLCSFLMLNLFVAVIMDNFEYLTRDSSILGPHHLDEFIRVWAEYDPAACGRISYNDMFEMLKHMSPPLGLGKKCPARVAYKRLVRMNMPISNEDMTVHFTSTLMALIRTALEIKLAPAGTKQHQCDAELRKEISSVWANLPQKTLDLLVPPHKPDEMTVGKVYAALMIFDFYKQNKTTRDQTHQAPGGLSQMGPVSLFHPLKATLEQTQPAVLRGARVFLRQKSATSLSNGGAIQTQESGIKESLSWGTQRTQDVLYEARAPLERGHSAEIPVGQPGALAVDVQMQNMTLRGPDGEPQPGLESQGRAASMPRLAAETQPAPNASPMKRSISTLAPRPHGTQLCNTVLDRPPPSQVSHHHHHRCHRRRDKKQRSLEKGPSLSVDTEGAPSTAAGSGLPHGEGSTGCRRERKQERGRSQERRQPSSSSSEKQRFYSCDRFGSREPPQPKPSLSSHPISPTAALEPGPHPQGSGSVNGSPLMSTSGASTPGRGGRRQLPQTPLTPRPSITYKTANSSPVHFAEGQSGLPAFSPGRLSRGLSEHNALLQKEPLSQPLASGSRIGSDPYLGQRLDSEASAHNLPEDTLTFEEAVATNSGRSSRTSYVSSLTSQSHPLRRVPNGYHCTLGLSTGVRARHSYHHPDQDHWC
CaV2.2 current density in hippocampal neurons, sequence (P54287 whole entry partner): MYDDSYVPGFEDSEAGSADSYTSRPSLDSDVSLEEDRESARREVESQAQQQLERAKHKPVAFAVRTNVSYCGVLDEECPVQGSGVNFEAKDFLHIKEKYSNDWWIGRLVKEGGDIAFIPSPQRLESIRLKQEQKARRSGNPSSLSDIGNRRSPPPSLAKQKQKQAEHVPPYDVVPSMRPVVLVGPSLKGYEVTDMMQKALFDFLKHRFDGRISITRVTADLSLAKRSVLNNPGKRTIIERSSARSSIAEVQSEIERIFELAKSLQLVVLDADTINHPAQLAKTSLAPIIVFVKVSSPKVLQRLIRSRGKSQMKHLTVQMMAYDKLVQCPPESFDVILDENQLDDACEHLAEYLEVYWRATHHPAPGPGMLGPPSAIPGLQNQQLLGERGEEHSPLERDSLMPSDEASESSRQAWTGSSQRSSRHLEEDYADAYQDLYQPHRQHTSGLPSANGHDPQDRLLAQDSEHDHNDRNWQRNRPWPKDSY
CaV2.2 current density in hippocampal neurons, sequence (P54290 25-944 partner limits assumed): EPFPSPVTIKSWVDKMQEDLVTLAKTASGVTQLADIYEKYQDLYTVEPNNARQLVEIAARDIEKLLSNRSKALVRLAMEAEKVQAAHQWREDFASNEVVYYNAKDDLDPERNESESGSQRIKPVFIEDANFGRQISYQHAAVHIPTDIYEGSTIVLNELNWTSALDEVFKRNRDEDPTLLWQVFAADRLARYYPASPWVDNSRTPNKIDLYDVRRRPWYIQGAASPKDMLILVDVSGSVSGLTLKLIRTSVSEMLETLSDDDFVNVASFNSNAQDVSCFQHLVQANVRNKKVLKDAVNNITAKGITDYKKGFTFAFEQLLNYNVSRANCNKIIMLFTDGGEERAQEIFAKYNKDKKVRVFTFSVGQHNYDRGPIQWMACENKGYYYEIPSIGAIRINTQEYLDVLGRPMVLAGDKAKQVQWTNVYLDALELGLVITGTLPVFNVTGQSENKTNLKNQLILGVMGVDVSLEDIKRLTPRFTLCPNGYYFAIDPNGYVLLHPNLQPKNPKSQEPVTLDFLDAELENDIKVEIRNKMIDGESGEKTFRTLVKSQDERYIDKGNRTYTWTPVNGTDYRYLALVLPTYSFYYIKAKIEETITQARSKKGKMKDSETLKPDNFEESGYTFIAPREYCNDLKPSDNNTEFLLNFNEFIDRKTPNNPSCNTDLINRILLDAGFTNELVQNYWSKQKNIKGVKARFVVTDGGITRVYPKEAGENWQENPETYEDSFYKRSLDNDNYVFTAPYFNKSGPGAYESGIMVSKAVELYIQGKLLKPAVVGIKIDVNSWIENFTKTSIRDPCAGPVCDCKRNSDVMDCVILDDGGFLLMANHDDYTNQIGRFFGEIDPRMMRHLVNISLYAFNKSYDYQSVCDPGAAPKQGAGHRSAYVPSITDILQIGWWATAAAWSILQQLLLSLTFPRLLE
CaV2.2 current density in hippocampal neurons, sequence (P54290 945-1091 partner limits assumed): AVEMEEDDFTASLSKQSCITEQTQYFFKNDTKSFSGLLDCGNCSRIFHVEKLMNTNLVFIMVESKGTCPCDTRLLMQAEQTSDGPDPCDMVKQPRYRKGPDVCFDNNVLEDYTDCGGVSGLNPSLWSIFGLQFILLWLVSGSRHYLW

[5] = target: T1, interaction between tubulin and CRMP-2 (Rattus norvegicus, UniProt P47942); experiment: Immunoprecipitation of CRMP-2/tubulin in the presence of peptides; assay type: binding; details: spinal cord lysates
T1 construct: from tissue; host or cells: rat brain / spinal cord lysates (tubulin)

[6] = target: T2, CRMP-2-CaV2.2 interaction (Rattus norvegicus, UniProt Q02294); experiment: Immunoprecipitation of CRMP-2/CaV2.2 in the presence of peptides; assay type: binding; details: spinal cord lysates or rat brains; peptides 10 μM
T2 construct: that could be captured from rat brains; from tissue; host or cells: rat brain / spinal cord lysates (CaV2.2)
T2 sequence (Q02294 whole entry): as the sequence (Q02294 whole entry) above
T2 sequence (P54287 whole entry partner): as the sequence (P54287 whole entry partner) above
Description: Referring now to FIG. 18. […] Peptides (10 μM each) were added for 30 min prior to addition of the CRMP-2-His protein. Representative blot from 12 separate experiments is shown. (FIG. 18.B) In vitro binding of L1-GST and Ct-dis-GST fusion proteins to CRMP-2 in the presence of scramble or CBD3 peptides (10 μM). The purification of the L1 and Ct-dis regions of CaV2.2 has been described by us previously. CRMP-2 bound to L1 and Ct-dis was probed with a CRMP-2 antibody. Representative blot from 4 separate experiments are shown. Similar results were obtained in experiments with spinal cord lysates (FIGS. 18.B and 18D).
Immunoblotting. This was performed as described previously. Rat brain synaptosomes were pre-cleared by a 1-h incubation with 20 μl of a 50% slurry of protein A/G beads (Pierce). The cleared lysate was then incubated overnight with various primary antibodies or rabbit or mouse isotype-specific IgGs (Sigma) as controls. The antibody-captured complexes were recovered with fresh protein A-agarose (for rabbit polyclonal antibodies) or protein A/G-agarose (for mouse monoclonal antibodies) beads (20 μl of original bead slurry/sample) by incubation with lysate/antibody mixture at 4° C. for 2 h. The beads were then washed three times with lysis buffer. Prior to electrophoresis on SDS-polyacrylamide gels, protein samples were boiled in Laemmli sample buffer for 5 min. […]

Q: Which results are given for CC(C)C[C@H](NC(=O)CNC(=O)[C@H](CCCNC(=N)N)NC(=O)[C@@H]1CCCN1C(=O)[C@@H](NC(=O)CNC(=O)[C@H](CCCNC(=N)N)NC(=O)[C@H](CC(C)C)NC(=O)[C@H](CCC(=O)O)NC(=O)[C@H](C)NC(=O)[C@H](CC(C)C)NC(=O)[C@H](CCCNC(=N)N)NC(=O)[C@H](CO)NC(=O)[C@H](CCCNC(=N)N)NC(=O)[C@H](C)NC(=O)[C@H](CCCNC(=N)N)NC(=O)[C@H](CCCNC(=N)N)NC(=O)[C@H](CCCNC(=N)N)NC(=O)[C@H](CCC(N)=O)NC(=O)[C@H](CCCNC(=N)N)NC(=O)[C@H](CCCNC(=N)N)NC(=O)[C@H](CCCCN)NC(=O)[C@H](CCCCN)NC(=O)[C@H](CCCNC(=N)N)NC(=O)CNC(=O)[C@@H](N)Cc1ccc(O)cc1)C(C)C)C(=O)O [TAT-CBD3] (H-YGRKKRRQRRRARSRLAELRGVPRGL-OH; N-terminus and C-terminus assumed)?
A: Elevated Plus Maze: Closed arm entries ([1]; 0.1 mg/kg i.p.): 19.1 ± 1.4; Elevated Plus Maze: Closed arm latency to enter ([1]; 0.1 mg/kg i.p.): 4.5 ± 2.2 s; Elevated Plus Maze: Closed arm latency to exit ([1]; 0.1 mg/kg i.p.): 14.9 ± 2.9 s; Elevated Plus Maze: Open arm entries ([1]; 0.1 mg/kg i.p.): 13.6 ± 1.6; Elevated Plus Maze: Open arm latency to enter ([1]; 0.1 mg/kg i.p.): 10.3 ± 2.7 s; Elevated Plus Maze: Open arm latency to exit ([1]; 0.1 mg/kg i.p.): 17.7 ± 2.5 s; Elevated Plus Maze: Closed arm entries ([1]; 1 mg/kg i.p.): 26.4 ± 4.2; Elevated Plus Maze: Closed arm latency to enter ([1]; 1 mg/kg i.p.): 2.4 ± 2.1 s; Elevated Plus Maze: Closed arm latency to exit ([1]; 1 mg/kg i.p.): 11.1 ± 2.6 s; Elevated Plus Maze: Open arm entries ([1]; 1 mg/kg i.p.): 19.7 ± 3.1; Elevated Plus Maze: Open arm latency to enter ([1]; 1 mg/kg i.p.): 10.1 ± 2.9 s; Elevated Plus Maze: Open arm latency to exit ([1]; 1 mg/kg i.p.): 16.4 ± 3.1 s; Elevated Plus Maze: Closed arm entries ([1]; 10 mg/kg i.p.): 27.4 ± 7.0; Elevated Plus Maze: Closed arm latency to enter ([1]; 10 mg/kg i.p.): 5.3 ± 2.2 s; Elevated Plus Maze: Closed arm latency to exit ([1]; 10 mg/kg i.p.): 10.6 ± 3.5 s; Elevated Plus Maze: Open arm entries ([1]; 10 mg/kg i.p.): 20.0 ± 6.1; Elevated Plus Maze: Open arm latency to enter ([1]; 10 mg/kg i.p.): 4.6 ± 1.9 s; Elevated Plus Maze: Open arm latency to exit ([1]; 10 mg/kg i.p.): 11.1 ± 2.1 s; EPM time in and entries into open/closed arms ([1]; any dose, compared to TAT-Scramble): neither time spent in the open or closed arms, nor frequency of entries into the open nor closed arms were altered; IC50 [2]: 3.1 ± 1.1 µM

Q: What does the source list for ARSRLAELRGVPRGL (CBD3)?
A: interaction between CRMP-2 and L1 or Ct-dis regions of CaV2.2 [3]: disrupted the interaction; CRMP-2-mediated increase in CaV2.2 current density [4]: eliminated; interaction between tubulin and CRMP-2 (immunoprecipitation) [5]: did not affect; CRMP-2-CaV2.2 interaction (immunoprecipitation) [6]: inhibited; also recorded: inhibits the binding between CRMP-2 and CaV2.2
